According to patent US20180267067A1, “METHODS FOR BIOANALYSIS OF 6-DIAZO-5-OXO-L-NORLEUCINE (DON) AND OTHER GLUTAMINE ANTAGONISTS” (THE JOHNS HOPKINS UNIVERSITY, priority 2015, published 2018):
Where two headings read alike, the source gives them in different places.

Assays:
[1] = DON plasma and brain concentrations in mice after i.p. administration (LC-MS after acidified butanol derivatization); assay type: in vivo; details: for Kp at 1 h: brain/plasma
Procedure: (§1) FIG. 5A and FIG. 5B show: (FIG. 5A) DON concentrations in plasma over time. Mice were administered DON at 1.6 mg/kg (i.v.). Mice were euthanized and blood was collected transcardially 0.25, 0.5, 1, 2, 4 and 6 hours after dosing. Blood was centrifuged, plasma collected and stored at −80° C. N-butanol containing 3N HCl (250 μL) was added directly to samples (50 μL) and centrifuged at 16,000×g for 5 min to precipitate proteins. An aliquot (200 μL) of the supernatant was incubated at 60° C. for 30 min. After derivatization, the samples were analyzed by LC-MS (methods); and (FIG. 5B) DON plasma to brain ratio analysis. Mice were administered DON (0.6 mg/kg, i.p.) and blood and brain were collected 1 h after DON administration. Plasma was isolated from blood samples as described in (FIG. 5A). Brains were collected following perfusion with PBS and frozen immediately at −80° C. Before bioanalysis, brains were weighed and n-butanol containing 3N HCl was added to each sample (5 μL/mg tissue) and homogenized using a pestle. Resulting homogenates were centrifuged at 16,000×g for 5 min to precipitate proteins and analyzed the same way as the plasma samples. All determinations in both (A) and (B) were carried out in triplicate. Error bars correspond to ±S.E.M; and
When using plasma, DON was derivatized only using 3N HCl plus n-butanol and subsequently analyzed by LC-MS. To generate the standard curve to determine DON concentrations in plasma, DON (10 μL of 1 mM water solution) was added to untreated mouse plasma (90 μL) in a low retention micro-centrifuge tube. Standard solutions (100 μL) were then prepared by serial dilution to generate concentrations from 10 nM to 100 μM at half-log intervals. Prior to extraction, frozen plasma samples were thawed on ice. N-butanol (250 μL) containing 3N HCl was added directly to standards (50 μL), vortexed and centrifuged at 16,000×g for 5 minutes in low retention micro-centrifuge tubes to precipitate proteins. […] After derivatization, an aliquot of the reaction mixture (2 μL) was injected and analyzed by LC-MS as stated above. The area under the curve (AUC) representing the signal intensity of the extracted ion (m/z 218.0942) for each sample was used to generate the standard curve using Agilent Mass Hunter Quantitative analysis software. […] DON concentrations in plasma samples were determined by interpolation using the standard curve.
When using brain, DON was derivatized only using 3N HCl plus n-butanol and subsequently analyzed by LC-MS. […] After derivatization, an aliquot of the reaction mixture (2 μL) was injected and analyzed by LC-MS as stated above. […] DON concentrations in brain samples were determined by interpolation using the standard curve. […]

[2] = DON concentration in plasma from DON-treated mice, direct versus derivatization protocols; details: male, C57BL/6, mouse, in vivo, iv, 1.6 mg/kg, 1.6 mg/kg i.v., 15 min after administration, N=3, ±S.D.
Procedure: Mouse plasma samples were obtained 15 min after DON administration (1.6 mg/kg, i.v.). For LC-MS bioanalysis of underivatized DON from plasma, DON was extracted from plasma with methanol, dried and resuspended in H2O and separated in a Hypercarb column. For LC-MS bioanalysis of derivatized DON from plasma, DON was derivatized in butanol containing 3N HCl for 30 min at 60° C., dried, reconstituted in 30% acetonitrile and separated by RPC. Analytes eluting after each chromatographic separation were detected by QTOF MS. N=3 for each treatment. Error bars correspond to ±S.D.
Methanol (250 μL) was added to plasma samples containing DON (50 μL); samples were centrifuged for 5 min at 16,000×g to precipitate proteins. […] Analytes were detected with an Agilent 6520 QTOF in MS mode as when analyzing derivatized DON by LC-MS.
(§2) When using plasma, DON was derivatized only using 3N HCl plus n-butanol and subsequently analyzed by LC-MS. […] After derivatization, an aliquot of the reaction mixture (2 μL) was injected and analyzed by LC-MS as stated above. The area under the curve (AUC) representing the signal intensity of the extracted ion (m/z 218.0942) for each sample was used to generate the standard curve using Agilent Mass Hunter Quantitative analysis software. […] DON concentrations in plasma samples were determined by interpolation using the standard curve. […]

[3] = DON plasma pharmacokinetics in mice after i.v. administration (LC-MS after acidified butanol derivatization); assay type: in vivo; details: male, C57BL/6, mouse, iv, 1.6 mg/kg i.v.
Procedure: as §1, with “Plasma was isolated from blood samples as described in (FIG. 5A). Brains were collected following perfusion with PBS and frozen immediately at −80° C. Before bioanalysis, brains were weighed and n-butanol containing 3N HCl was added to each sample (5 μL/mg tissue) and homogenized using a pestle.” left out, “All determinations in both (A) and (B) were carried out in triplicate. Error bars correspond to ±S.E.M; and” left out
as §2

With `[N-]=[N+]=CC(=O)CC[C@H](N)C(=O)O` [DON, 6-Diazo-5-oxo-L-norleucine] the “DON concentration in brain” value ([1]; 0.6 mg/kg i.p., 1 h after administration, brains perfused with PBS, ±S.E.M.) was 0.22±0.18 nmol/g tissue, the Kp at 1 h ([1]; male, C57BL/6, mouse, intraperitoneal, 0.6 mg/kg, at 1 h, read-out: brain/plasma ratio) was 0.1 and the Kp at 1 h ([1]; male, C57BL/6, mouse, ip, 0.6 mg/kg i.p., 1 h, read-out: brain to plasma ratio) was ~0.1. For the same compound, the concentration at 1 h ([1]; male, C57BL/6, mouse, plasma, ip, 0.6 mg/kg i.p., 1 h after administration, ±S.E.M.) was 1.7 ± 0.5 µM, the concentration at 15 min ([2]; read-out: DON concentration in plasma, derivatization method (acidified butanol, LC-MS)) was 4.2 µM and the concentration at 15 min ([2]; read-out: DON concentration in plasma, direct method (underivatized DON, Hypercarb LC-MS)) was 3.9 µM. It also gave an AUC ([3]; in vivo, 0.25-6 h, read-out: exposure of DON estimated from the area under the curve (AUC)) of 8 µM·h and a half-life [3] of 1.2 h.
